Measurements published in the supplement of paper PMC10307832.

Columns and labels:
Experiment in all cases: relative viability (nuclei count vs DMSO), 5 days (fraction); higher = more cells survive
Bosutinib = compound: COc1cc(Nc2c(C#N)cnc3cc(OCCCN4CCN(C)CC4)c(OC)cc23)c(Cl)cc1Cl [Bosutinib]
In short: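 Five library-drug doses, separated by factors of √10, were pinned into 1536-well plates holding lung cancer cell lines after an overnight stay at 37 °C. Cells were fixed, permeabilised and Hoechst-stained in one step after 5 days without medium change, then imaged at 4×. Viability compares treated-well with vehicle-well nuclei, counted in MetaXpress, as a median across plates. Passing plates had control CV below 25% and at least one doubling.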

Bosutinib + Olaparib = compound: COc1cc(Nc2c(C#N)cnc3cc(OCCCN4CCN(C)CC4)c(OC)cc23)c(Cl)cc1Cl [Bosutinib] + O=C(c1cc(Cc2n[nH]c(=O)c3ccccc23)ccc1F)N1CCN(C(=O)C2CC2)CC1 [Olaparib] (partner 8 µM)
In short: (§1)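 Lung cancer cell lines were pin-tool dosed in 1536-well plates on the day after seeding, with either a lone drug or a fixed anchor-drug dose plus five library-drug doses (not always all listed) in √10 steps. Nuclei were counted on 4× images after 5 days. Relative viability is the ratio of treated-well to vehicle-well nuclei counts, with each value a median of duplicate plates.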

Bosutinib + Palbociclib = compound: COc1cc(Nc2c(C#N)cnc3cc(OCCCN4CCN(C)CC4)c(OC)cc23)c(Cl)cc1Cl [Bosutinib] + CC(=O)c1c(C)c2cnc(Nc3ccc(N4CCNCC4)cn3)nc2n(C2CCCC2)c1=O [Palbociclib] (partner 0.5 µM)
In short: as §1

Bosutinib + Tozasertib = compound: COc1cc(Nc2c(C#N)cnc3cc(OCCCN4CCN(C)CC4)c(OC)cc23)c(Cl)cc1Cl [Bosutinib] + Cc1cc(Nc2cc(N3CCN(C)CC3)nc(Sc3ccc(NC(=O)C4CC4)cc3)n2)n[nH]1 [Tozasertib] (partner 0.1 µM)
In short: as §1

Bosutinib + AZD7762 = compound: COc1cc(Nc2c(C#N)cnc3cc(OCCCN4CCN(C)CC4)c(OC)cc23)c(Cl)cc1Cl [Bosutinib] + NC(=O)Nc1cc(-c2cccc(F)c2)sc1C(=O)N[C@H]1CCCNC1 [AZD7762] (partner 0.2 µM)
In short: as §1

Bosutinib + Vorinostat = compound: COc1cc(Nc2c(C#N)cnc3cc(OCCCN4CCN(C)CC4)c(OC)cc23)c(Cl)cc1Cl [Bosutinib] + O=C(CCCCCCC(=O)Nc1ccccc1)NO [Vorinostat] (partner 1 µM)
In short: as §1

Bosutinib + Trametinib = compound: COc1cc(Nc2c(C#N)cnc3cc(OCCCN4CCN(C)CC4)c(OC)cc23)c(Cl)cc1Cl [Bosutinib] + CC(=O)Nc1cccc(-n2c(=O)n(C3CC3)c(=O)c3c(Nc4ccc(I)cc4F)n(C)c(=O)c(C)c32)c1 [Trametinib] (partner 0.02 µM)
In short: as §1

Bosutinib + Decitabine = compound: COc1cc(Nc2c(C#N)cnc3cc(OCCCN4CCN(C)CC4)c(OC)cc23)c(Cl)cc1Cl [Bosutinib] + Nc1ncn([C@H]2C[C@H](O)[C@@H](CO)O2)c(=O)n1 [Decitabine] (partner 2 µM)
In short: as §1

Bosutinib + OSI-027 = compound: COc1cc(Nc2c(C#N)cnc3cc(OCCCN4CCN(C)CC4)c(OC)cc23)c(Cl)cc1Cl [Bosutinib] + COc1cccc2cc(-c3nc([C@H]4CC[C@H](C(=O)O)CC4)n4ncnc(N)c34)[nH]c12 [OSI-027] (partner 0.5 µM)
In short: as §1

Bosutinib + Pemetrexed = compound: COc1cc(Nc2c(C#N)cnc3cc(OCCCN4CCN(C)CC4)c(OC)cc23)c(Cl)cc1Cl [Bosutinib] + Nc1nc2[nH]cc(CCc3ccc(C(=O)N[C@@H](CCC(=O)O)C(=O)O)cc3)c2c(=O)[nH]1 [Pemetrexed] (partner 0.2 µM)
In short: as §1

Bosutinib + Dasatinib = compound: COc1cc(Nc2c(C#N)cnc3cc(OCCCN4CCN(C)CC4)c(OC)cc23)c(Cl)cc1Cl [Bosutinib] + Cc1nc(Nc2ncc(C(=O)Nc3c(C)cccc3Cl)s2)cc(N2CCN(CCO)CC2)n1 [Dasatinib] (partner 0.075 µM)
In short: as §1

Bosutinib + Phenformin = compound: COc1cc(Nc2c(C#N)cnc3cc(OCCCN4CCN(C)CC4)c(OC)cc23)c(Cl)cc1Cl [Bosutinib] + N=C(N)NC(=N)NCCc1ccccc1 [Phenformin] (partner 250 µM)
In short: as §1

Bosutinib + Luminespib = compound: COc1cc(Nc2c(C#N)cnc3cc(OCCCN4CCN(C)CC4)c(OC)cc23)c(Cl)cc1Cl [Bosutinib] + CCNC(=O)c1noc(-c2cc(C(C)C)c(O)cc2O)c1-c1ccc(CN2CCOCC2)cc1 [Luminespib] (partner 0.01 µM)
In short: as §1

Bosutinib + Foretinib = compound: COc1cc(Nc2c(C#N)cnc3cc(OCCCN4CCN(C)CC4)c(OC)cc23)c(Cl)cc1Cl [Bosutinib] + COc1cc2c(Oc3ccc(NC(=O)C4(C(=O)Nc5ccc(F)cc5)CC4)cc3F)ccnc2cc1OCCCN1CCOCC1 [Foretinib] (partner 0.25 µM)
In short: as §1

Cell Line: NCI-H1648
- relative viability (Bosutinib; 0.01 µM): 1.15
- relative viability (Bosutinib; 0.03162 µM): 0.851
- relative viability (Bosutinib; 0.1 µM): 0.997
- relative viability (Bosutinib; 1 µM): 0.931
- relative viability (Bosutinib + Olaparib; first compound 0.01 µM): 0.953
- relative viability (Bosutinib + Olaparib; first compound 0.03162 µM): 0.703
- relative viability (Bosutinib + Olaparib; first compound 0.1 µM): 1.01
- relative viability (Bosutinib + Olaparib; first compound 1 µM): 0.77
- relative viability (Bosutinib + Palbociclib; first compound 0.01 µM): 0.297
- relative viability (Bosutinib + Palbociclib; first compound 0.03162 µM): 0.278
- relative viability (Bosutinib + Palbociclib; first compound 0.1 µM): 0.26
- relative viability (Bosutinib + Palbociclib; first compound 1 µM): 0.341
- relative viability (Bosutinib + Tozasertib; first compound 0.01 µM): 0.594
- relative viability (Bosutinib + Tozasertib; first compound 0.03162 µM): 0.447
- relative viability (Bosutinib + Tozasertib; first compound 0.1 µM): 0.396
- relative viability (Bosutinib + Tozasertib; first compound 1 µM): 0.462
- relative viability (Bosutinib + AZD7762; first compound 0.01 µM): 0.659
- relative viability (Bosutinib + AZD7762; first compound 0.03162 µM): 0.639
- relative viability (Bosutinib + AZD7762; first compound 0.1 µM): 0.838
- relative viability (Bosutinib + AZD7762; first compound 1 µM): 0.61
- relative viability (Bosutinib + Vorinostat; first compound 0.01 µM): 0.389
- relative viability (Bosutinib + Vorinostat; first compound 0.03162 µM): 0.471
- relative viability (Bosutinib + Vorinostat; first compound 0.1 µM): 0.541
- relative viability (Bosutinib + Vorinostat; first compound 1 µM): 0.511
- relative viability (Bosutinib + Trametinib; first compound 0.01 µM): 0.548
- relative viability (Bosutinib + Trametinib; first compound 0.03162 µM): 0.501
- relative viability (Bosutinib + Trametinib; first compound 0.1 µM): 0.505
- relative viability (Bosutinib + Trametinib; first compound 1 µM): 0.421
- relative viability (Bosutinib + Decitabine; first compound 0.01 µM): 0.471
- relative viability (Bosutinib + Decitabine; first compound 0.03162 µM): 0.622
- relative viability (Bosutinib + Decitabine; first compound 0.1 µM): 0.662
- relative viability (Bosutinib + Decitabine; first compound 1 µM): 0.675
- relative viability (Bosutinib + OSI-027; first compound 0.01 µM): 0.286
- relative viability (Bosutinib + OSI-027; first compound 0.03162 µM): 0.251
- relative viability (Bosutinib + OSI-027; first compound 0.1 µM): 0.261
- relative viability (Bosutinib + OSI-027; first compound 1 µM): 0.245
- relative viability (Bosutinib + Pemetrexed; first compound 0.01 µM): 0.728
- relative viability (Bosutinib + Pemetrexed; first compound 0.03162 µM): 0.824
- relative viability (Bosutinib + Pemetrexed; first compound 0.1 µM): 0.744
- relative viability (Bosutinib + Pemetrexed; first compound 1 µM): 0.813

Cell Line: SW 900
- relative viability (Bosutinib; 0.01 µM): 0.856
- relative viability (Bosutinib; 0.03162 µM): 0.706
- relative viability (Bosutinib; 0.1 µM): 0.801
- relative viability (Bosutinib; 1 µM): 0.815
- relative viability (Bosutinib + Olaparib; first compound 0.01 µM): 0.824
- relative viability (Bosutinib + Olaparib; first compound 0.03162 µM): 0.769
- relative viability (Bosutinib + Olaparib; first compound 0.1 µM): 0.766
- relative viability (Bosutinib + Olaparib; first compound 1 µM): 0.538
- relative viability (Bosutinib + Palbociclib; first compound 0.01 µM): 0.524
- relative viability (Bosutinib + Palbociclib; first compound 0.03162 µM): 0.525
- relative viability (Bosutinib + Palbociclib; first compound 0.1 µM): 0.5
- relative viability (Bosutinib + Palbociclib; first compound 1 µM): 0.352
- relative viability (Bosutinib + Tozasertib; first compound 0.01 µM): 0.521
- relative viability (Bosutinib + Tozasertib; first compound 0.1 µM): 0.586
- relative viability (Bosutinib + Tozasertib; first compound 1 µM): 0.507
- relative viability (Bosutinib + Dasatinib; first compound 0.01 µM): 0.774
- relative viability (Bosutinib + Dasatinib; first compound 0.1 µM): 0.682
- relative viability (Bosutinib + Dasatinib; first compound 1 µM): 0.749
- relative viability (Bosutinib + Phenformin; first compound 0.01 µM): 0.577
- relative viability (Bosutinib + Phenformin; first compound 0.1 µM): 0.686
- relative viability (Bosutinib + Phenformin; first compound 1 µM): 0.458
- relative viability (Bosutinib + AZD7762; first compound 0.01 µM): 0.624
- relative viability (Bosutinib + AZD7762; first compound 0.03162 µM): 0.589
- relative viability (Bosutinib + AZD7762; first compound 0.1 µM): 0.581
- relative viability (Bosutinib + AZD7762; first compound 1 µM): 0.482
- relative viability (Bosutinib + Vorinostat; first compound 0.01 µM): 0.605
- relative viability (Bosutinib + Vorinostat; first compound 0.03162 µM): 0.531
- relative viability (Bosutinib + Vorinostat; first compound 0.1 µM): 0.671
- relative viability (Bosutinib + Vorinostat; first compound 1 µM): 0.409
- relative viability (Bosutinib + Trametinib; first compound 0.01 µM): 0.809
- relative viability (Bosutinib + Trametinib; first compound 0.03162 µM): 0.674
- relative viability (Bosutinib + Trametinib; first compound 0.1 µM): 0.784
- relative viability (Bosutinib + Trametinib; first compound 1 µM): 0.61
- relative viability (Bosutinib + Decitabine; first compound 0.01 µM): 0.408
- relative viability (Bosutinib + Decitabine; first compound 0.03162 µM): 0.438
- relative viability (Bosutinib + Decitabine; first compound 0.1 µM): 0.427
- relative viability (Bosutinib + Decitabine; first compound 1 µM): 0.424
- relative viability (Bosutinib + OSI-027; first compound 0.01 µM): 0.51
- relative viability (Bosutinib + OSI-027; first compound 0.1 µM): 0.591
- relative viability (Bosutinib + OSI-027; first compound 1 µM): 0.455
- relative viability (Bosutinib + Luminespib; first compound 0.01 µM): 0.154
- relative viability (Bosutinib + Luminespib; first compound 0.1 µM): 0.183
- relative viability (Bosutinib + Luminespib; first compound 1 µM): 0.15
- relative viability (Bosutinib + Pemetrexed; first compound 0.01 µM): 0.465
- relative viability (Bosutinib + Pemetrexed; first compound 0.03162 µM): 0.501
- relative viability (Bosutinib + Pemetrexed; first compound 0.1 µM): 0.462
- relative viability (Bosutinib + Pemetrexed; first compound 1 µM): 0.39
- relative viability (Bosutinib + Foretinib; first compound 0.01 µM): 0.806
- relative viability (Bosutinib + Foretinib; first compound 0.1 µM): 1.04
- relative viability (Bosutinib + Foretinib; first compound 1 µM): 0.721
